The values that follow come from PubChem BioAssay (NCI).

Test in all cases: NCI anticancer screen, dose series, 48 h
Assay [1] relates to IGROV1 ovarian.
Assay [2] relates to SN12C renal.
For assay [3], the system named is RPMI-8226 leukemia.
In assay [4] the test system is NCI-H23 lung.
In assay [5] the test system is MDA-MB-231 breast.
For assay [6], the system named is HT29 colon.
In assay [7] the test system is HOP-92 NSCLC.
Assay [8] relates to SF-539 CNS.
The subject of assay [9] is LOX IMVI melanoma.
Assay [10] has as its system TK-10 renal.

Where “and” joins values, the source holds several entries; their conditions need not be identical. Equal entries are not always repeated.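 Cells were grown in 96-well plates and exposed to each compound for 48 hours at five concentrations; endpoints were interpolated linearly between bracketing concentrations, or set to the highest concentration if not reached. At the GI50, growth is halved. TGI is the concentration that stops growth completely.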

For the molecule `COc1ccc(NC(=O)c2sc3nc4c(cc3c2N)CCCC4)cc1`, the GI50 in assay [1] is 0.929 µM; in assay [2], 1.43 µM; in assay [3], 0.484 µM; in assay [4] it was 2.55 µM; in assay [5] it was 5.26 µM; in [6], 0.345 µM. Also, the GI50 in [7] is 10.6 µM; in assay [8], 0.372 µM; in assay [9], 0.686 µM. Besides, the TGI in [1] was over 100 µM; in assay [2] it was over 100 µM; in assay [3], 12.1 µM; in assay [4] it was over 100 µM; in [5] it was over 100 µM; in assay [6], 3.36 µM. The TGI is 76.3 µM in assay [7], 6.52 µM in [8] and over 100 µM in [9].

Consider `c1ccc(CC(NCCNC(Cc2ccccc2)c2ccccc2)c2ccccc2)cc1` (stereo not drawn), for which the GI50 in assay [10] was 1.46 µM; in [1] it was 0.605 µM; in [2], 0.517 µM; in assay [3], 0.243 µM; in assay [4] it was 0.589 µM; in [5] it was 0.331 µM. In addition, the GI50 in assay [6] was 0.227 µM; in [7], 0.369 µM; in assay [8], 0.451 µM; in assay [9], 0.185 µM. Besides, the TGI in assay [10] is 4.21 µM; in assay [1], 2.84 µM; in assay [2], 1.96 µM; in [3], 0.524 µM; in [4], 2.55 µM; in assay [5], 1.24 µM. In addition, the TGI in [6] is 0.567 µM; in [7] it was 1.48 µM; in assay [8], 1.64 µM; in assay [9], 0.375 µM.

As for `C1=C2CNCC3=Cc4ccc5ccccc5c4OC23Oc2c1ccc1ccccc21`, the GI50 in assay [10] is 9.08 µM; in assay [1], 9.59 µM; in [2] it was 4.22 µM; in assay [3] it was 5.44 µM; in [4], 6.94 µM; in assay [5], 9.34 µM. Moreover, the GI50 in assay [7] is 2.86 µM; in assay [8] it was 3.36 µM; in assay [9] it was 2.43 µM. Moreover, the TGI was 27.4 µM in assay [10]; 28.7 µM in [1]; 20.1 µM in [2]; 65.3 µM in [3]; 32 µM in assay [4]; 27.2 µM in assay [5]. Also, the TGI was 17.1 µM in [7], 14.9 µM in assay [8] and 7.48 µM in assay [9].

On to `Cn1cnc([N+](=O)[O-])c1Sc1nc(N)nc2nc[nH]c12`, for which the GI50 in assay [10] was 5.75 µM; in assay [1], 14 µM; in assay [2], 6.7 µM; in assay [3] it was 3.52 µM; in [4], 5.61 µM; in assay [5] it was 4.88 µM. The GI50 was 5.19 µM in assay [6], 3.1 µM in assay [7], 3.15 µM in assay [8] and 0.488 µM in assay [9]. Also, the TGI in [10] is over 100 µM; in [1] it was over 100 µM; in assay [2] it was over 100 µM; in [3], over 94 µM; in assay [4] it was over 100 µM; in assay [5], over 100 µM. For the same molecule, the TGI in assay [6], in assay [7], in [8] and in assay [9] was over 100 µM in each case.

`Cc1ccc(/C=C2\CNC/C(=C\c3ccc(C)cc3)C2=O)cc1`: the GI50 is 0.509 µM in [10]; 3.64 µM in assay [1]; 1.77 µM in [2]; 0.392 µM in assay [6]; 2.21 µM in assay [7]; 1.53 µM in assay [8]. For the same molecule, the GI50 in assay [9] was 0.403 µM. The TGI in assay [10] was 2.2 µM and 13.9 µM; in assay [1] it was 4.92 µM; in assay [2] it was 3.24 µM and 6.25 µM; in assay [3] it was 0.69 µM; in assay [4], 3.79 µM and 4.1 µM; in assay [5], over 24.6 µM. Besides, the TGI in [6] was 1.41 µM and 3.04 µM; in assay [7], 5.49 µM and 14.5 µM; in assay [8] it was 5.04 µM and 19.5 µM; in assay [9], 1.49 µM and 2.11 µM.

For the molecule `COc1ccc(/C=C/C(=O)C(C)(C)Br)cc1`, the TGI in assay [10] was determined as 29.7 µM; in assay [1], 5.76 µM; in [2] it was 19.6 µM; in assay [3], 14.6 µM; in assay [4] it was 6.04 µM; in [5] it was 63.1 µM. Besides, the TGI in [7] amounted to 27.9 µM; in assay [8] it was 32.2 µM; in assay [9], 23.3 µM.

`C/C(=N\n1c(N)c(C#N)c(-c2ccc(Cl)cc2)c(C#N)c1=O)c1ccncc1`: the GI50 is 6.04 µM in assay [10]; 5.02 µM in assay [1]; 9.88 µM in assay [2]; 7.96 µM in assay [3]; 11 µM in assay [4]; 12.6 µM in assay [5]. Further, the GI50 is over 100 µM in [6], 0.61 µM in [7] and 35.4 µM in [9]. The TGI was 38.9 µM in [10]; over 100 µM in [1]; 41.1 µM in assay [2]; 69.7 µM in assay [3]; 45.7 µM in assay [4]; 44.2 µM in [5]. In addition, the TGI in [6] is over 100 µM; in [7] it was 4.17 µM; in assay [9] it was over 100 µM.

Turning to `CCOCNc1ccc(N2C(=O)/C(=C/c3ccc(N(CC)CC)cc3)N=C2c2ccccc2)cc1`, the GI50 in assay [10] was 22.3 µM; in [2], 16.6 µM; in assay [3], 2.83 µM; in assay [4] it was 27.3 µM; in assay [5], 13 µM; in assay [6], 6.88 µM. Moreover, the GI50 is 2.25 µM in assay [7], 4.87 µM in assay [8] and 2.48 µM in [9]. Further, the TGI in [10] was over 100 µM; in [2] it was over 100 µM; in assay [3], over 100 µM; in assay [4], over 100 µM; in assay [5] it was 49.3 µM; in assay [6], over 100 µM. In addition, the TGI in assay [7] was 12 µM; in assay [8], 26.7 µM; in [9] it was over 100 µM.
